We go through 18 compounds from US20120302607A1, “C4-SUBSTITUTED ALPHA-KETO OXAZOLES” (The Scripps Research Institute, priority 2008, published 2012).

In general, IC50 refers to the concentration needed to halve the response being measured. A lower IC50 goes with higher potency. The Ki is the dissociation constant of the complex between target and ligand, obtained from inhibition or displacement.

Series [1] deals with T1, triacylglycerol hydrolase (TGH) (UniProt Q8VCT4).
T1 sequence (Q8VCT4 1-565): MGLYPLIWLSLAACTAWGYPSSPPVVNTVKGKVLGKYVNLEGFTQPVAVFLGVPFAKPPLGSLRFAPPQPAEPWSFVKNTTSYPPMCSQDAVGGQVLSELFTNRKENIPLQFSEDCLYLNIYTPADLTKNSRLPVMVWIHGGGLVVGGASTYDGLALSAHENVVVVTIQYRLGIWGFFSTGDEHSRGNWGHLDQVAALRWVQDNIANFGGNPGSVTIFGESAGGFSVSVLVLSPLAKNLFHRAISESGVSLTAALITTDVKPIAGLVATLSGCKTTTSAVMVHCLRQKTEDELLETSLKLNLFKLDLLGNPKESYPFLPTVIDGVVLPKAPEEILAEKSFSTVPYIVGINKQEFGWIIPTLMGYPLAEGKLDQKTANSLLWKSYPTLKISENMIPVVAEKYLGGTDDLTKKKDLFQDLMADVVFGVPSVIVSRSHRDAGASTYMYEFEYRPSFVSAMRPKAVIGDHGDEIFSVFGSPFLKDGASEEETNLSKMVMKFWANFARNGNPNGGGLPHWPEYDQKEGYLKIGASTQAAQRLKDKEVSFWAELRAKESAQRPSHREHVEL
The experiment in a line: Proteome-wide serine hydrolase selectivity screening, TGH. The format is biochemical, human. To be noted: selectivity screening.

A further series deals with T2, FAAH (UniProt O08914).
T2 sequence (O08914 1-579): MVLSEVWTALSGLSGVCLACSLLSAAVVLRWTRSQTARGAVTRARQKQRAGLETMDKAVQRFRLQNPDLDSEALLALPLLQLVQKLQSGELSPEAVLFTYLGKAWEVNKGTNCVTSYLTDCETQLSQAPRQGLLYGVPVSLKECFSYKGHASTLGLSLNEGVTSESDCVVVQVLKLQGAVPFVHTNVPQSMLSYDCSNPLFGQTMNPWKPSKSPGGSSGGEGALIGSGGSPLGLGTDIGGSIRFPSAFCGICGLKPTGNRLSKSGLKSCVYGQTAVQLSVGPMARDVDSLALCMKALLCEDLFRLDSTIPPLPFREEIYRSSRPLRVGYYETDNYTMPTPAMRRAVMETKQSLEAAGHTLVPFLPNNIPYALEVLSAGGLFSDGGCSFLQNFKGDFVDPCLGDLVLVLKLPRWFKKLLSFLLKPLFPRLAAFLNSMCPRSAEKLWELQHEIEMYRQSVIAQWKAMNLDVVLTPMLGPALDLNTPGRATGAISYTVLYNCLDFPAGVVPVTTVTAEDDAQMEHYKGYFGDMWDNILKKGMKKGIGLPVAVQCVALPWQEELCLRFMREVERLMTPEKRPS
Description: Proteome-wide serine hydrolase selectivity screening, FAAH. The format is biochemical, human.

The target of series [2] is T3, membrane-associated hydrolase (KIAA1363) (UniProt Q8BLF1).
T3 sequence (Q8BLF1 1-408): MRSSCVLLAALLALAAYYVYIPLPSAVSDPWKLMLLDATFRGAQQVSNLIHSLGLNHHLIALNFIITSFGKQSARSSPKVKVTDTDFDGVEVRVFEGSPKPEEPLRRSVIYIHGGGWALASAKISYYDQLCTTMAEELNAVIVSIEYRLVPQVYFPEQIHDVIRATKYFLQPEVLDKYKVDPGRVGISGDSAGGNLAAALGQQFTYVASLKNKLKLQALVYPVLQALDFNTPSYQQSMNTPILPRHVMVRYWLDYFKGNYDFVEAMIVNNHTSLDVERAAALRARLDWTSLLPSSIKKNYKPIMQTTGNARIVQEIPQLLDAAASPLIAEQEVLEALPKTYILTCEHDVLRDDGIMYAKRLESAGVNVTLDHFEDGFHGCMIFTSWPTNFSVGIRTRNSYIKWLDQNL
The experiment in a line: Proteome-wide serine hydrolase selectivity screening, KIAA1363. The format is biochemical. To be noted: selectivity screening.

Series [3] addresses T4, truncated rat FAAH (rFAAH) (Rattus norvegicus, UniProt P97612).
T4 construct: The truncated rat FAAH (rFAAH) was expressed in E. coli and purified as described by Patricelli et al; made in house; host or cells: E. coli
T4 sequence (P97612 30-579 limits assumed): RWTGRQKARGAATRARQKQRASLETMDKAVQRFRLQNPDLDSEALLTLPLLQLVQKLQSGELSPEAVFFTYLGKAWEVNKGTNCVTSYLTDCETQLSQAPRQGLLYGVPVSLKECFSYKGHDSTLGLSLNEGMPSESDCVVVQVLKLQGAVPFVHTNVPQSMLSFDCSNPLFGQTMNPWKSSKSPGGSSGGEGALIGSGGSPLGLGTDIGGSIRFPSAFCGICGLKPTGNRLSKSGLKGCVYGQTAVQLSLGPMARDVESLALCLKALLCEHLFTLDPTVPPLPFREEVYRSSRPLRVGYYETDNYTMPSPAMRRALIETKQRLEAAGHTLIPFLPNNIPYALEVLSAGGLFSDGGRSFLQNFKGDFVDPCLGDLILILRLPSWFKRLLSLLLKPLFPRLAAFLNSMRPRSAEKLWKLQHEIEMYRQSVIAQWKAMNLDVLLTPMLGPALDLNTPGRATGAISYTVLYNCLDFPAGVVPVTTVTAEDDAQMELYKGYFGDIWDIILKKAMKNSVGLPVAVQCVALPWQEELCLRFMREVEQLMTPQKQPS
The experiment in a line: Rat FAAH inhibition enzyme assay (14C-oleamide hydrolysis, Dixon plot). The format is biochemical. On the procedure: The purified recombinant rFAAH was used in the inhibition assays unless otherwise indicated.
The ^14C-labeled oleamide (substrate) and oleic acid (product) were extracted with EtOAc and analyzed by TLC. The Ki of the inhibitor was calculated using a Dixon plot (standard deviations are provided in the Supporting Information tables).

Series [4] is described as follows: % hydration or hemiketal formation by 1H and 13C NMR in solvent. The format is physicochemical. To be noted: for form in protic solution: at C4, not C2, 1H and 13C NMR. An excerpt:
The evaluation of Ki provides information about active site binding. […] More subtly, aldehyde 4g (and trifluoromethyl ketone 4i) was established to exist in protic solution as gem diols (at C4, not C2; ^1H and ^13C NMR, data in Examples below).

The mark [5] stands for this setting: Table 1, purified recombinant rFAAH, pH 9.0, read-out: Rat FAAH inhibition Ki.
Setting [6] is: Table 4, value ± error, read-out: Ki, inhibition results with calculated errors.

Read-outs that look alike come from different tables or passages of the source.

On to `O=C(CCCCCCc1ccccc1)c1ncco1` [Compound 4a], for which the IC50 in series [1] worked out at 20 nM; at FAAH it was 2500 nM; in series [2], 20000 nM.

`O=C(CCCCCCc1ccccc1)c1nc(Br)co1` [Compound 4b, 1-(4-Bromooxazol-2-yl)-7-phenylheptan-1-one]: the Ki was 3 nM in series [3] (setting [5]) and 3 ± 0.02 nM in series [3] (setting [6]).

On to `O=C(CCCCCCc1ccccc1)c1nc(Cl)co1` [Compound 4c, 1-(4-Chlorooxazol-2-yl)-7-phenylheptan-1-one], for which the results for the Ki in series [3] (setting [5]) and in series [3] (setting [6]) were 4 nM and 4 ± 0.05 nM, respectively.

Turning to `O=C(CCCCCCc1ccccc1)c1nc(I)co1` [Compound 4d, 1-(4-Iodooxazol-2-yl)-7-phenylheptan-1-one], the Ki in series [3] (setting [5]) is 6.5 nM; in series [3] (setting [6]), 6.5 ± 0.26 nM.

In the case of `Cc1coc(C(=O)CCCCCCc2ccccc2)n1` [Compound 4e, 1-(4-Methyloxazol-2-yl)-7-phenylheptan-1-one], the figures for the Ki in series [3] (setting [5]) and in series [3] (setting [6]) were 520 nM and 520 ± 1 nM, respectively.

In the case of `CSc1coc(C(=O)CCCCCCc2ccccc2)n1` [Compound 4f, 1-(4-(Methylthio)oxazol-2-yl)-7-phenylheptan-1-one], the figures for the Ki in series [3] (setting [5]) and in series [3] (setting [6]) were 29 nM and 29 ± 0.2 nM, respectively.

In the case of `O=Cc1coc(C(=O)CCCCCCc2ccccc2)n1` [Compound 4g, 2-(7-Phenylheptanoyl)oxazole-4-carbaldehyde], the “% Hydration or Hemiketal Formation” value in series [4] (CD3OD, at the C4 substituent carbonyl) is above 95% for CHO; in series [4] (CDCl3), 0%. Also, in series [4], the “form in protic solution” value was “gem diols”. Further, the Ki in series [3] (setting [5]) was 55 nM; in series [3] (setting [6]) it was 55 ± 5 nM.

In the case of `CC(=O)c1coc(C(=O)CCCCCCc2ccccc2)n1` [Compound 4h, 1-(4-Acetyloxazol-2-yl)-7-phenylheptan-1-one], the inhibitory constant (Ki) in series [3] (setting [5]) is 2 nM; in series [3] (setting [6]), 2 ± 0.07 nM.

As to `O=C(CCCCCCc1ccccc1)c1nc(C(=O)C(F)(F)F)co1` [Compound 4i, 7-Phenyl-1-(4-(2,2,2-trifluoroacetyl)oxazol-2-yl)heptan-1-one], in series [4], the “form in protic solution” value was “gem diols”. Besides, the inhibitory constant (Ki) in series [3] (setting [5]) was 470 nM; in series [3] (setting [6]), 470 ± 2 nM.

Take `COC(=O)c1coc(C(=O)CCCCCCc2ccccc2)n1` [Compound 4j, Methyl 2-(7-Phenylheptanoyl)oxazole-4-carboxylate]: the inhibitory constant (Ki) was 3.4 nM in series [3] (setting [5]) and 3.4 ± 0.05 nM in series [3] (setting [6]).

For the compound `O=C(CCCCCCc1ccccc1)c1nc(-c2ccccc2)co1` [Compound 4n, 7-Phenyl-1-(4-phenyloxazol-2-yl)heptan-1-one], the figures for the Ki in series [3] (setting [5]) and in series [3] (setting [6]) were 65 nM and 65 ± 4.4 nM, respectively.

On to `NC(=O)c1coc(C(=O)CCCCCCc2ccccc2)n1` [Compound 4p, 2-(7-Phenylheptanoyl)oxazole-4-carboxamide], for which the values for the inhibition constant Ki in series [3] (setting [5]) and in series [3] (setting [6]) were 1.6 nM and 1.6 ± 0.001 nM, respectively.

Consider `CNC(=O)c1coc(C(=O)CCCCCCc2ccccc2)n1` [Compound 4q, N-Methyl-2-(7-phenylheptanoyl)oxazole-4-carboxamide], for which the results for the Ki in series [3] (setting [5]) and in series [3] (setting [6]) were 1.8 nM and 1.8 ± 0.005 nM, respectively.

On to `CN(C)C(=O)c1coc(C(=O)CCCCCCc2ccccc2)n1` [Compound 4r, N,N-Dimethyl-2-(7-phenylheptanoyl)oxazole-4-carboxamide], for which the inhibitory constant (Ki) in series [3] (setting [5]) was 35 nM; in series [3] (setting [6]) it was 35 ± 0.1 nM.

On to `COc1coc(C(=O)CCCCCCc2ccccc2)n1` [Compound 4u, 1-(4-Methoxyoxazol-2-yl)-7-phenylheptan-1-one], for which the inhibitory constant (Ki) in series [3] (setting [5]) was 740 nM; in series [3] (setting [6]), 740 ± 0.07 nM.

`N#Cc1cnc(C(=O)CCCCCCc2ccccc2)o1` [Compound 5b, reference compound]: the IC50 is 20 nM in series [1] and above 100000 nM in series [2].

The compound `O=C(CCCCCCc1ccccc1)c1ncc(-c2ccccn2)o1` [Compound 5c, reference compound] gave a concentration for half-maximal inhibition (IC50) in series [2] above 100000 nM.

`O=C(O)c1cnc(C(=O)CCCCCCc2ccccc2)o1` [Compound 5d, reference compound]: the values for the IC50 (in series [1]; at FAAH; in series [2]) were above 100000 nM, 900 nM and above 100000 nM, respectively.
